Assay results: patent US20250197372A1 (priority 2020, published 2025)

Each molecule was assayed against T1, recombinant alpha-glucosidase I (human full-length glucosidase I, Glu 1) (Homo sapiens, UniProt Q13724) (assay: Alpha-glucosidase I assay (Amplex Red glucose detection, synthetic trisaccharide substrate)). Details: Glucosidase 1; read-out: Glu 1 IC50.
T1 construct: 6-His (C); made in house; host or cells: HEK-293T cells transduced with BacMam virus (virus raised in Sf9)
T1 sequence (Q13724 1-837): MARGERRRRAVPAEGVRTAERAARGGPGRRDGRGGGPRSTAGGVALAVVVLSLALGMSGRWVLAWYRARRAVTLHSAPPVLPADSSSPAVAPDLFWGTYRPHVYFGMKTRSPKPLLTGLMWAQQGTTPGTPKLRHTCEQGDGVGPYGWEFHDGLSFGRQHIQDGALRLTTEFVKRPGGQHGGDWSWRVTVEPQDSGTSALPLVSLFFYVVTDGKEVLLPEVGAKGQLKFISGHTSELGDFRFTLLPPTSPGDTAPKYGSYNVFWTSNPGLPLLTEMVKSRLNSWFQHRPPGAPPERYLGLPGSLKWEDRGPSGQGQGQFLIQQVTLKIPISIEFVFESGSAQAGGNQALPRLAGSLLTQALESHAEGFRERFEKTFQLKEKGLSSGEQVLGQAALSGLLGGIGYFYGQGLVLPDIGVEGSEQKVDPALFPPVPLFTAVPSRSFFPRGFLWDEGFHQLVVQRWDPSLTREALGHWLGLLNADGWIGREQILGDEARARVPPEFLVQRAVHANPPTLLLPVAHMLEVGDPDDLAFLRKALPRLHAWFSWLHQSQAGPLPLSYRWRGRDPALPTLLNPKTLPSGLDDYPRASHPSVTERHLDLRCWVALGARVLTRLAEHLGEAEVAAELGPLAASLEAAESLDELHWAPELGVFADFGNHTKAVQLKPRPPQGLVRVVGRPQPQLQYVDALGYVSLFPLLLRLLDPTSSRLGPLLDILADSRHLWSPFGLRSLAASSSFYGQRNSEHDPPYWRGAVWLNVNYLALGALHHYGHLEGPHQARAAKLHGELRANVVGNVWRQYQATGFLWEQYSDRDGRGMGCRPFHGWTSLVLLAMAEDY
Type: biochemical
Summary of the method: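 Compound dilution series incubated 60 min at 37° C with recombinant His-tagged human glucosidase I ([…]), after which trisaccharide substrate analog was added for 90 min at 37° C. Reaction quenched with 1.5M Tris pH 8; D-glucose detected by Amplex Red fluorescence, 560/590 nm. 4-PL curve fit of percent inhibition gave IC50.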

Question: How did the IC50 turn out when `N#Cc1cc(NCc2cccc(CN3C[C@H](O)[C@@H](O)[C@H](O)[C@H]3CO)c2)cc(-c2cccnn2)c1` [Compound 1046, 3-(pyridazin-3-yl)-5-{[(3-{[(2R,3R,4R,5S)-3,4,5-trihydroxy-2-(hydroxymethyl)piperidin-1-yl]methyl}phenyl)methyl]amino}benzonitrile] was run?
Answer: Its IC50 is 17 nM.

Question: How did the IC50 turn out when `N#Cc1cc(NCc2ccc(CN3C[C@H](O)[C@@H](O)[C@H](O)[C@H]3CO)cc2)cc(-c2ncccn2)c1` [Compound 1065, 3-(pyrimidin-2-yl)-5-{[(4-{[(2R,3R,4R,5S)-3,4,5-trihydroxy-2-(hydroxymethyl)piperidin-1-yl]methyl}phenyl)methyl]amino}-benzonitrile] was run?
Answer: Its IC50 is 9 nM.

Question: `O=[N+]([O-])c1cc(-c2ncco2)ccc1NCCc1ccc(CCN2C[C@H](O)[C@@H](O)[C@H](O)[C@H]2CO)cc1` [Compound 1112, (2R,3R,4R,5S)-2-(hydroxymethyl)-1-{2-[4-(2-{[2-nitro-4-(1,3-oxazol-2-yl)phenyl]amino}ethyl)phenyl]ethyl}piperidine-3,4,5-triol] was tested. Which IC50 did it give?
Answer: The IC50 was 89 nM.

Question: For `O=[N+]([O-])c1cc(-c2ncccn2)ccc1NCc1cccc(CN2C[C@H](O)[C@@H](O)[C@H](O)[C@H]2CO)c1` [Compound 1090, (2R,3R,4R,5S)-2-(hydroxymethyl)-1-{[3-({[2-nitro-4-(pyrimidin-2-yl)phenyl]amino}methyl)phenyl]methyl}piperidine-3,4,5-triol], which IC50 is on record?
Answer: The IC50 was 7 nM.

Question: `Cc1cc(CN2CCOCC2)cc(NCCCCCCN2C[C@H](O)[C@@H](O)[C@H](O)[C@H]2CO)c1` [Compound 1003, (2R,3R,4R,5S)-2-(hydroxymethyl)-1-[6-({3-methyl-5-[(morpholin-4-yl)methyl]phenyl}amino)hexyl]piperidine-3,4,5-triol] was tested. Which IC50 did it give?
Answer: The IC50 was 366 nM.

Question: For `O=[N+]([O-])c1cc(CN2CCCO2)ccc1NCCc1ccc(CCN2C[C@H](O)[C@@H](O)[C@H](O)[C@H]2CO)cc1` [Compound 1108, (2R,3R,4R,5S)-2-(hydroxymethyl)-1-(2-{4-[2-({2-nitro-4-[(1,2-oxazolidin-2-yl)methyl]phenyl}amino)ethyl]phenyl}ethyl)piperidine-3,4,5-triol], which IC50 is on record?
Answer: The IC50 was 247 nM.

Question: With `OC[C@@H]1[C@@H](O)[C@H](O)[C@@H](O)CN1Cc1ccc(CNc2ccc(C3=COCCO3)cc2)cc1` [Compound 1093, (2R,3R,4R,5S)-1-{[4-({[4-(5,6-dihydro-1,4-dioxin-2-yl)phenyl]amino}methyl)phenyl]methyl}-2-(hydroxymethyl)piperidine-3,4,5-triol] as the molecule, how does the IC50 read?
Answer: Its IC50 is 12 nM.

Question: How did the IC50 turn out when `N#Cc1cc(NCc2ccc(CN3C[C@H](O)[C@@H](O)[C@H](O)[C@H]3CO)cc2)cc(-c2ccc[nH]2)c1` [Compound 1063, 3-(1H-pyrrol-2-yl)-5-{[(4-{[(2R,3R,4R,5S)-3,4,5-trihydroxy-2-(hydroxymethyl)piperidin-1-yl]methyl}phenyl)methyl]amino}-benzonitrile] was run?
Answer: The IC50 was 1 nM.
